Legend:
[1] = test system: HPV 16 E6 peptide-specific T-cell clones (subject 18); format: cell-based, human; settings: eight screen-positive T-cell clones of subject 18; HPV16 E6 121-145 region; 10 μM
[2] = test system: peptide-pulsed Epstein-Barr Virus-transformed B-lymphoblastoid cell line cells; assay: Chromium release assay, subject 18 T-cell clones as effectors; format: cell-based, human; settings: clones #83-18 and #87-18
Description: (§1) To identify putative restricting Human Leukocyte Antigen class I molecule, enzyme-linked immunospot assays were performed, as described above, using autologous Epstein-Barr Virus-transformed B-lymphoblastoid cell line cells sharing one or a few class I molecules with the subjects. The results were confirmed using chromium release assays in which at least two autologous Epstein-Barr Virus-transformed B-lymphoblastoid cell line cells expressing the putative Human Leukocyte Antigen class I molecule were tested. The Epstein-Barr Virus-transformed B-lymphoblastoid cell line cells were labeled with 100 μCi of sodium chromate (Na2^51CrO4), and were incubated with 10 μM of positive peptide. After plating the cells in 96-wells plate at 3×10^3/well, effector cells were added at multiple effector to target cell (E:T) ratios. After 5 hr of incubation, the supernatants were harvested and radioactivity was counted with a gamma counter (Packard Instruments, Meriden, Conn.). Percentage specific lysis was calculated as described (39).

CD8 T-cell = assay: ELISPOT assay of CD8 T-cell responses in women followed for abnormal Pap smear; format: cell-based, human; settings: women with abnormal Pap smear
Description: Women who were followed, but untreated for abnormal Pap smear results, were enrolled. HPV-DNA testing using the Linear Array HPV Geotyping Test (Roche Diagnostics, Indianapolis, Ind.) and enzyme-linked immunospot (ELISPOT) assay using the HPV 16 E6 and E7 antigens were performed. The subjects were categorized into three groups: regressor (n=32), persistor/progressor (n=33), or indeterminate (n=20) based on comparisons of pathological diagnoses (Pap smear or biopsy) between the last clinic visit and the current clinic visit at which blood samples were collected.

[3] = test system: Human Leukocyte Antigen class I molecule; assay: Identification of the restricting Human Leukocyte Antigen molecules; format: cell-based
Description: as §1

[4] = test system: peptide-pulsed Epstein-Barr Virus-transformed B-lymphoblastoid cell line cells; assay: Chromium release assay, subject 2 T-cell clones as effectors; format: cell-based, human; settings: clones #76-2 and #78-2; three allogeneic B-LCL expressing HLA-B62; 10 μM peptide
Description: as §1

[5] = test system: HPV 16 E6 peptide-specific T-cell clones (subject 2); format: cell-based, human
CD4+ T-cell = assay: Interferon-γ ELISPOT assay of CD4+ T-cell responses in subjects with abnormal Pap smear; format: cell-based, human
Description: The role of CD4+ T-cell responses to the HPV-16 E6 and E7 proteins was examined in the outcomes of subjects being studied for abnormal Papanicolaouu (Pap) smear results. Subjects with a recent history of abnormal Papanicolaouu smear were eligible, and colposcopy guided biopsy was performed at enrollment. Interferon-γ enzyme-linked immunospot assay, and fluorescent activated cell sorter analysis were performed. Subjects with histological diagnoses of cervical intraepithelial neoplasia 1, 2, or 3 were considered to have short-term persistence of cervical abnormality and were called “persistors” (n=51) while those of normal histology were designated to be “regressors” (n=33). For the CD4+ T-cell responses, not only were the responses to E6 overall (Table 8) associated with a favorable clinical outcome, but also to a number of regions within the E6 protein. Furthermore, the regressors were more likely to have 2 or more E6-positive or E7-positive peptide regions as compared to the persistors (p=0.0035 or p=0.042 respectively) (Table 9).

[6] = test system: Human Leukocyte Antigen-matched HPV16 E7 11-20-pulsed targets; settings: cited from earlier work
[7] = high-risk HPV-positive subjects
[8] = subjects positive for HPV-16 related types

## E6 131-145: 15-mer peptide in the HPV16 E6 121-145 region (RFHNIRGRWTGRCMS; UniProt P03126 131-145, looked up, fragment)
[1]
  enzyme-linked immunospot response to individual 15-mer peptides: positive
[2]; autologous B-LCL and B-LCL expressing A68 or A6801
  chromium release assay result: positive
[2]; other allogeneic B-LCL including HLA-6802
  chromium release assay result: negative

## EPDRAHYNIVTFCCKCDSTLRLCVQ (E7 46-70 peptide from immunodominant epitope region of Human Papilloma Virus 16 E7 protein) [SEQ ID NO. 30]
CD8 T-cell
  Responses (number of immune responses detected towards the region): 10

## KFYSKISEY (E6 75-83 peptide from immunodominant epitope region of Human Papilloma Virus 16 E6 protein) [SEQ ID NO. 1]
[3]
  Human Leukocyte Antigen Restriction Element: HLA-B62
[4]
  lysis of peptide-pulsed B-LCL in chromium release assay: lysed
[5]; 10^−5M to 10^−10M
  serial dilution of the two peptides in enzyme-linked immunospot assay: equivalent
[5]; clones #76-2 and #78-2, autologous and five allogeneic HLA-B62 B-LCL, 10 μM
  recognition of peptide-pulsed B-LCL by E6 75-83-specific T cell clones: recognized
[5]; subject 2 T-cell clones
  number of spot forming units, 9-mer compared with surrounding 10-mers and 8-mers within: comparable number of spot forming units
  spot forming units per well, series of 9-mer peptides within E6 71-85: most number of spot forming units per well

## RREVYDFAFRDLCIVYRDGNPYAVC (E6 46-70 peptide from immunodominant epitope region of Human Papilloma Virus 16 E6 protein) [SEQ ID NO. 31]
CD8 T-cell
  Responses (number of immune responses detected towards the region): 8

## YGTTLEQQYNKPLCDLLIRCINCQK (E6 91-115 peptide from immunodominant epitope region of Human Papilloma Virus 16 E6 protein) [SEQ ID NO. 29]
CD4+ T-cell; all subjects
  CD4+ T-cell responses, persistors: 2%
  CD4+ T-cell responses, regressors: 18%
CD4+ T-cell; [7]
  CD4+ T-cell responses, persistors: 2%
  CD4+ T-cell responses, regressors: 23%
CD4+ T-cell; [8]
  CD4+ T-cell responses, persistors: 0%
  CD4+ T-cell responses, regressors: 22%
CD8 T-cell
  Responses (number of immune responses detected towards the region): 11

## YMLDLQPETT [SEQ ID NO. 26]
[6]; cervical cancer patients
  patients whose cytotoxic T lymphocytes lysed peptide-pulsed targets: two of three patients
[6]
  Human Leukocyte Antigen restriction: Human Leukocyte Antigen-A2

— patent publication US8926961B2, “HPV E6 protein T cell epitopes and uses thereof” (Board Of Trustees of The University Of Arkansas, priority 2007, dated 2015)
